Active and inactive are the calls of the source. The calls are words filed in the database; no cut-off is given here.
How the values were obtained:
[1] = tested on: Staphylococcus aureus; assay: Antibacterial activity against Staphylococcus aureus 8325.4 assessed as bacterial growth inhibition incubated for 24 hrs by CLSI based micro-broth dilution assay; assay type: functional
[2] = Selectivity index, ratio of IC50 for antiproliferative activity against HEK293T cells assessed as reduction in cell viability to MIC for antibacterial activity against methicillin-resistant Staphylococcus aureus assessed as bacterial growth inhibition; assay type: toxicity, cell-based; conditions: human, read-out: Selectivity Index
[3] = tested on: Staphylococcus aureus; assay: Antibacterial activity against Methicillin-resistant Staphylococcus aureus infected in ICR mouse skin infection model assessed as reduction in skin abscess volume at 40 mg/kg, sc measured upto 10 days; assay type: functional, organism-based; conditions: time <= 10.0 day
[4] = tested on: Cell membrane; assay: Disruption of membrane integrity in methicillin-resistant Staphylococcus aureus assessed as increase in fluorescence intensity measured for 120 mins by confocal microscopic analysis; assay type: cell membranes
[5] = Stability in methicillin-resistant Staphylococcus aureus supernatants measured for 12 hrs by RP-HPLC analysis; assay type: physicochemical; conditions: read-out: Stability
[6] = tested on: Staphylococcus aureus; assay: Antibacterial activity against methicillin-resistant Staphylococcus aureus 18878 assessed as bacterial growth inhibition incubated for 24 hrs by CLSI based micro-broth dilution assay; assay type: functional
[7] = tested on: Staphylococcus aureus; assay: Antibacterial activity against methicillin-resistant Staphylococcus aureus 18567 assessed as bacterial growth inhibition incubated for 24 hrs by CLSI based micro-broth dilution assay; assay type: functional
[8] = Stability in methicillin-resistant Staphylococcus aureus supernatants measured for 24 hrs by RP-HPLC analysis; assay type: physicochemical
[9] = tested on: Candida albicans; assay: Antifungal activity against Candida albicans assessed as inhibition of fungal growth; assay type: functional
[10] = tested on: Staphylococcus aureus; assay: Antibacterial activity against methicillin-resistant Staphylococcus aureus 18908 assessed as bacterial growth inhibition incubated for 24 hrs by CLSI based micro-broth dilution assay; assay type: functional
[11] = Stability in mouse blood plasma measured for 24 hrs by RP-HPLC analysis; assay type: ADME, cell-free
[12] = target: T1, Monofunctional C1-tetrahydrofolate synthase, mitochondrial (Homo sapiens, UniProt Q6UB35); assay: Binding affinity to FTHFS (unknown origin) expressed in Escherichia coli BL21 (DE3) using IPTG as […] assessed as dissociation constant by MST assay
T1 sequence (Q6UB35 whole entry): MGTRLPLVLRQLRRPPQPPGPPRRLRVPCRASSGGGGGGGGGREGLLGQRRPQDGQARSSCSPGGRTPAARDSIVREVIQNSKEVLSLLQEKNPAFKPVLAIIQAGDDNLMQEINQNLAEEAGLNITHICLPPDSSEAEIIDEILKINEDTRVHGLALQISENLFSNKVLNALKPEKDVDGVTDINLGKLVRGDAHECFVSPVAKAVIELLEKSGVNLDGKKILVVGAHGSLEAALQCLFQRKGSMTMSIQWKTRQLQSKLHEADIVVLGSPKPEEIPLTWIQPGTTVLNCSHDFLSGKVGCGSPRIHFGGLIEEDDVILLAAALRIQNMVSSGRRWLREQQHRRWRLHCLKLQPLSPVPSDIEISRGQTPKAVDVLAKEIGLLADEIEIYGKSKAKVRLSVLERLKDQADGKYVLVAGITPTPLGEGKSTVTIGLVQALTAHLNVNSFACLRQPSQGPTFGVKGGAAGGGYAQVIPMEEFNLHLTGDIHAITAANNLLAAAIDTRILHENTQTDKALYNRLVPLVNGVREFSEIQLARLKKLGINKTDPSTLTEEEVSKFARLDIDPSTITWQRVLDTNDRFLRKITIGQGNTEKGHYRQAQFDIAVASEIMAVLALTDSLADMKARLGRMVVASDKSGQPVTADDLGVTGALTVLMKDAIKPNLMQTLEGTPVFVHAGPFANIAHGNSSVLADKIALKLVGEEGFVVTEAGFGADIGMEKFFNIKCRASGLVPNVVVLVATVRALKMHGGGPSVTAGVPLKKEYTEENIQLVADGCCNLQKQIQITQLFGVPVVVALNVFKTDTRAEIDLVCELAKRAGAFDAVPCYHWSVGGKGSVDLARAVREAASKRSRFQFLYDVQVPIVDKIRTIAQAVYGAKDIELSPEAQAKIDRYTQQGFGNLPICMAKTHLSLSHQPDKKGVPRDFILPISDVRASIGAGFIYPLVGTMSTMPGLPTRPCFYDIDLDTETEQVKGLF

[13] = tested on: Staphylococcus aureus; assay: Antibacterial activity against methicillin-resistant Staphylococcus aureus 18475 assessed as bacterial growth inhibition incubated for 24 hrs by CLSI based micro-broth dilution assay; assay type: functional

Substance | MIC [1] [µM] | selectivity ratio [2] | Activity [3] | Activity [4] | remaining at 12 h [5] [%] | MIC [6] [µM] | MIC [7] [µM] | Stability [8] | MIC [9] [µM] | MIC [10] [µM] | Stability [11] | Kd [12] [µM] | MIC [13] [µM]
H-LARVARRVIRFIRRAW-NH2 | 3 | 107 | Active | Active | 50 | 6 | 3 | Stable | 3 | 3 | Unstable | 2.24 | 6
H-RRRLARRLIFFIRRAW-NH2 | 3 | 107 | Active | Active | 25 | 6 | 6 | Stable | 3 | 3 | Unstable | 3.68 | 6
